# In patent US20240343712A1, “SOLID-STATE FORMS OF 2-(3-(4-(1H-INDAZOL-5-YLAMINO)QUINAZOLIN-2-YL)PHENOXY)-N-ISOPROPYLACETAMIDE METHANE SULFONIC ACID SALT” (Sandoz AG, priority 2021, published 2024):
# Experiments:
# [1] = Thermogravimetric analysis (TGA); assay type: physicochemical; settings: for stability against temperature stress: DSC and TGA, Examples 7 and 8
# Description: TGA was performed on a Mettler TGA/DSC 1 instrument. The samples (5.15 mg Form I, 5.69 Form II, 3.97 mg Form HyA, and 8.55 mg Form HyB) were each heated in a 100 microliter aluminium pan closed with an aluminium lid from 25 to 300° C. at a rate of 10 K/min. The lid was automatically pierced at the beginning of the measurement. Nitrogen (purge rate 50 mL/min) was used as purge gas.
# [2] = Gravimetric moisture sorption (GMS); assay type: physicochemical; settings: (25 ± 0.1)° C.; for Comment (hygroscopicity / behaviour upon moisture contact) / Δm (0-80% RH): 0-80% RH; for Δm (0-80% RH): gravimetric moisture sorption
# Description: Moisture sorption isotherms were recorded with an SPSx-1μ moisture sorption analyzer (ProUmid, Ulm). The measurement cycle was started at ambient relative humidity (RH) of 40%. Relative humidity was then decreased to 5% RH in 5% steps, followed by a further decrease to 3% RH and to 0% RH. Afterwards RH was increased from 0% to 90% in a sorption cycle and decreased to 0% in a desorption cycle in 5% steps. Finally RH was increased from 0 to 40% in 5% steps.
# The time per step was set to a minimum of 2 hours and a maximum of 6 hours. If an equilibrium condition with a constant mass of +0.01% within 1 hour was reached before the maximum time for all examined samples the sequential humidity step was applied before the maximum time of 6 hours. If no equilibrium was achieved the consecutive humidity step was applied after the maximum time of 6 hours. The temperature was 25±0.1° C.
stability against temperature stress [1],Comment (hygroscopicity / behaviour upon moisture contact) [2],Δm (0-80% RH) [2],Structure (SMILES),further results
stable against temperature stress,Slightly hygroscopic,+1.4 w-%,"CC(C)NC(=O)COc1cccc(-c2nc(Nc3ccc4[nH]ncc4c3)c3ccccc3n2)c1.CS(=O)(=O)O [Mesylate Form II, 2-(3-(4-(1H-indazol-5-ylamino)quinazolin-2-yl)phenoxy)-N-isopropylacetamide methane sulfonic acid]","Δm (0-100° C.), TGA mass loss ([1]; 0-100° C., 10 K/min, nitrogen): Δm (0-100° C.) = 0.32%, anhydrate; Comment (hygroscopicity / behaviour upon moisture contact) ([2]; listed as Form II): only slightly hygroscopic"
–,Very hygroscopic,+21.2 w % w-%,"CC(C)NC(=O)COc1cccc(-c2nc(Nc3ccc4[nH]ncc4c3)c3ccccc3n2)c1.CS(=O)(=O)O [Amorphous mesylate, 2-(3-(4-(1H-indazol-5-ylamino)quinazolin-2-yl)phenoxy)-N-isopropylacetamide methane sulfonic acid]",Comment (hygroscopicity / behaviour upon moisture contact) ([2]; listed as amorphous belumosudil mesylate): moderately hygroscopic
stable against temperature stress,Slightly hygroscopic,+1.9 w-%,"CC(C)NC(=O)COc1cccc(-c2nc(Nc3ccc4[nH]ncc4c3)c3ccccc3n2)c1.CS(=O)(=O)O [Mesylate Form I, 2-(3-(4-(1H-indazol-5-ylamino)quinazolin-2-yl)phenoxy)-N-isopropylacetamide methane sulfonic acid]","Δm (0-250° C.), TGA mass loss ([1]; 0-250° C., 10 K/min, nitrogen): Δm (0-250° C.) = 0.87%, anhydrate; Comment (hygroscopicity / behaviour upon moisture contact) ([2]; listed as belumosudil mesylate Form I): only slightly hygroscopic"
–,–,–,"CC(C)NC(=O)COc1cccc(-c2nc(Nc3ccc4[nH]ncc4c3)c3ccccc3n2)c1.CS(=O)(=O)O [Mesylate Form HyB, 2-(3-(4-(1H-indazol-5-ylamino)quinazolin-2-yl)phenoxy)-N-isopropylacetamide methane sulfonic acid]","Δm (0-140° C.), TGA mass loss ([1]; 0-140° C., 10 K/min, nitrogen): Δm (0-140° C.) = 3.19%, corresponds to a monohydrate"
–,–,–,"CC(C)NC(=O)COc1cccc(-c2nc(Nc3ccc4[nH]ncc4c3)c3ccccc3n2)c1.CS(=O)(=O)O [Mesylate Form HyA, 2-(3-(4-(1H-indazol-5-ylamino)quinazolin-2-yl)phenoxy)-N-isopropylacetamide methane sulfonic acid]","Δm (0-130° C.), TGA mass loss ([1]; 0-130° C., 10 K/min, nitrogen): Δm (0-130° C.) = 5.97%, corresponds to a dihydrate; Relative humidity of dehydration (release of crystal water) [2]: Dehydration below 3% RH"
